Test results published in PubChem BioAssay AID2060511 (Molecular Pharmacology Branch, DTP, NCI, 2025).
Where “and” joins values, the source holds several entries; their conditions need not be identical. Equal entries are not always repeated.

Test system: 422866-222-R5-J1-PDC spheroids with HUVEC/MSC, viability
Assay: Anticancer human tumor 422866-222-R5-J1-PDC patient-derived pancreatic adenocarcinoma cell line growth inhibition [GQUAD]
Conditions: for viability, T/C: stronger effect = lower value; active = viability on the fitted dose curve at most 10% of control; inactive = the rest
From the text: DNA G-quadruplex Stabilizer Agents in Combinations in Complex Spheroids
A high-throughput screen of multi-cell type tumor spheroids was designed to identify active combinations of DNA G-quadruplex stabilizer agents and targeted small molecules. Complex spheroids include a stromal component modeled by human endothelial cells (HUVEC) and fibroblasts modeled by human mesenchymal stem cells (MSCs). The concentration ranges selected for each drug and investigational agent were based upon clinically achievable concentrations if the clinical Cmax of the agent was known.
Compounds. The drugs and investigational agents: pidnarulex (CX-5461; NSC782164), APTO-253 (NSC789042), BRACO-19 (NSC847499), peposertib (NSC802822), ceralasertib (NSC780249), elimusertib (NSC800525), camonsertib (NSC841442), AZD-1390 (NSC803789), olaparib (NSC753686), talazoparib (NSC767125), ART-558 (NSC835418), sotorasib (NSC818433), MRTX-1133 (NSC836407), SN-38 (NSC673596), topotecan (NSC609699), etoposide (NSC141540), doxorubicin (NSC123127), gemcitabine (NSC613327), 5-fluorouracil (NSC19893), paclitaxel (NSC125973), vemurafenib (NSC761431), panobinostat (NSC761190), R-306465 (JNJ-16241199; NSC773264), adavosertib (NSC754352), TP-3654 (NSC805149), carboplatin (NSC241240), KSQ-4279 (NSC840948), and staurosporine (NSC755774) were obtained from the National Cancer Institute (NCI) Developmental Therapeutics Program Chemical Repository (34). The FDA-approved anticancer drug set is available from the NCI Developmental Therapeutics Program. […] The stock solutions were prepared in dimethyl sulfoxide (DMSO, Sigma-Aldrich, St. Louis, MO, cat. D2650) at 800-fold the tested concentration and stored at -70 degrees C prior to their use. All drugs and investigational agents were tested over a range starting from a high concentration at or near the clinical Cmax and decreasing in half-log increments. If the clinical Cmax for an agent had not been determined, the highest concentration tested was 10 microM.
2.3 Cell Culture. All cells were maintained in an incubator at 37 degrees C and 5% CO2 with 95% humidity. The PDC lines were cultured according to standard operating procedures established by the NCI PDMR. All PDCs were thawed and cultured in Matrigel-coated flasks prepared with a working solution of 1X Ham's F-12 nutrient mix, without supplementation (Invitrogen, cat. 11765054), 100 U/mL penicillin-streptomycin (Invitrogen, cat. 15140122), and 2.5% Matrigel (Corning Inc., cat. 354248) for the first three passages. The 857933-349-R-J2-PDC line was cultured in 6C/Colon 1B media, which includes advanced DMEM/F-12 (Thermo Fisher Scientific, cat. 12634028), 10 mM HEPES (Thermo Fisher Scientific, cat. 15630080), 1X GlutaMAX supplement (Thermo Fisher Scientific, cat. 35050061), 0.1 mg/mL primocin (InvivoGen, cat. ant-pm-2), 10% defined fetal bovine serum, heat inactivated (HyClone Laboratories Inc., cat. SH30070.03HI), 50% L-WRN conditioned media (ATCC, cat. CRL-3276), 1.25 mM N-Acetyl-L-cysteine (Sigma-Aldrich, cat. A9165), 10 mM nicotinamide (Sigma-Aldrich, cat. N0636), 1X B-27 supplement (Thermo Fisher Scientific, cat. 17504044), 1X N-2 supplement (Thermo Fisher Scientific, cat. 17502048), 10 microM Y-27632 dihydrochloride (Tocris Bioscience, cat. 1254), and 50 ng/mL human EGF recombinant protein (Thermo Fisher Scientific, cat. PHG0311). The 485176-168-R4-J1-PDC line was cultured in Panc media, which includes all 6C/Colon 1B media components plus 100 ng/mL human FGF-10 (Thermo Fisher Scientific, cat. 100-26), 500 nM SB-431542 (Selleckchem, cat. S1067), and gastrin (Tocris, cat. 3006).
[…]
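Note: spheroids exposed to compounds for seven days before reading.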
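Throughout, for viability, T/C: percent viability relative to DMSO vehicle control taken as 100%.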

O=C(NO)c1cnc(N2CCN(S(=O)(=O)c3ccc4ccccc4c3)CC2)nc1
inactive: viability, T/C (compound 0.0316 µM) 69.6% and 96.6% and 94.7% | viability, T/C (compound 0.1 µM) 70.9% and 105% and 90% | viability, T/C (compound 0.316 µM) 69.7% and 92.5% and 88.2% | viability, T/C (compound 1 µM) 67% and 52.3% and 58.2% | viability, T/C (compound 3.16 µM) 74.3% and 29.5% and 37.5%
> 10000 nM and 1340 nM and 1730 nM: IC50 (curve of compound)

CCCS(=O)(=O)Nc1ccc(F)c(C(=O)c2c[nH]c3ncc(-c4ccc(Cl)cc4)cc23)c1F
inactive: viability, T/C (compound 0.0316 µM) 96.7% and 101% and 93.4% | viability, T/C (compound 0.1 µM) 99.6% and 95.4% (2×) | viability, T/C (compound 0.316 µM) 60% and 140% and 121% | viability, T/C (compound 1 µM) 45.6% and 153% and 136% | viability, T/C (compound 3.16 µM) 32.6% and 184% and 167% | viability, T/C (compound 10 µM) 32.6% and 108% and 52.1%

CC1COCCN1c1cc(C2(O)CC3CCC(C2)O3)c2cnn(-c3ccn[nH]3)c2n1 (stereo not given)
inactive: viability, T/C (compound 0.0316 µM) 79.2% and 81.7% and 79.9% | viability, T/C (compound 0.1 µM) 44.1% and 40% and 47.8% | viability, T/C (compound 0.316 µM) 42.2% and 37.5% and 56.3% | viability, T/C (compound 1 µM) 57.8% and 66.2% and 79.9% | viability, T/C (compound 3.16 µM) 89.3% and 91.2% and 80.4% | viability, T/C (compound 10 µM) 90.9% and 96% and 90.3%
> 10000 nM: IC50 (curve of compound)

C=CC(=O)N1CCN(c2nc(=O)n(-c3c(C)ccnc3C(C)C)c3nc(-c4c(O)cccc4F)c(F)cc23)C(C)C1 (stereo not given)
inactive: viability, T/C (compound 0.0316 µM) 36.5% and 39.1% and 37% | viability, T/C (compound 0.1 µM) 32.9% and 29.9% and 28.5% | viability, T/C (compound 0.316 µM) 26.3% and 28.8% and 27.6% | viability, T/C (compound 1 µM) 27.3% and 26.2% and 23% | viability, T/C (compound 3.16 µM) 28.3% and 28.8% and 27.6% | viability, T/C (compound 10 µM) 29.3% and 30.3% and 27.3%
< 31.6 nM: IC50 (curve of compound)

COc1ccc([C@@H](O)c2cc(-c3ncnc4cc(N5CCOCC5)ccc34)c(F)cc2Cl)nn1
inactive: viability, T/C (compound 0.0316 µM) 82.4% and 103% and 110% | viability, T/C (compound 0.1 µM) 76.2% and 78.4% and 99% | viability, T/C (compound 0.316 µM) 81.6% and 86% and 90.4% | viability, T/C (compound 1 µM) 63.3% and 76.9% and 70.8% | viability, T/C (compound 3.16 µM) 51.5% and 44.1% and 60.7% | viability, T/C (compound 10 µM) 36.9% and 35.1% and 47.2%
3150 nM and 2620 nM and 7880 nM: IC50 (curve of compound)

COc1cccc2c1C(=O)c1c(O)c3c(c(O)c1C2=O)CC(O)(C(=O)CO)CC3OC1CC(N)C(O)C(C)O1 (stereo not given) + Cc1[nH]c2ccc(F)cc2c1-c1nc2c3cccnc3c3ncccc3c2[nH]1
474 nM: IC50 (curve of first compound, second compound 0.0316 µM)
782 nM: IC50 (curve of first compound, second compound 0.1 µM)
639 nM: IC50 (curve of first compound, second compound 0.316 µM)
529 nM: IC50 (curve of first compound, second compound 10 µM)
463 nM: IC50 (curve of first compound, second compound 1 µM)
inactive: viability, T/C (second compound 0.0316 µM, first compound 0.0316 µM) 108% | viability, T/C (second compound 0.0316 µM, first compound 0.1 µM) 70.2% | viability, T/C (second compound 0.0316 µM, first compound 0.316 µM) 63.6% | viability, T/C (second compound 0.0316 µM, first compound 1 µM) 37.3% | viability, T/C (second compound 0.0316 µM, first compound 3.16 µM) 30% | viability, T/C (second compound 0.0316 µM, first compound 10 µM) 34.7% | viability, T/C (second compound 0.1 µM, first compound 0.0316 µM) 113% | viability, T/C (second compound 0.1 µM, first compound 0.1 µM) 65.6% | viability, T/C (second compound 0.1 µM, first compound 0.316 µM) 69.2% | viability, T/C (second compound 0.1 µM, first compound 1 µM) 53.4% | viability, T/C (second compound 0.1 µM, first compound 3.16 µM) 34% | viability, T/C (second compound 0.1 µM, first compound 10 µM) 35% | viability, T/C (second compound 0.316 µM, first compound 0.0316 µM) 92% | viability, T/C (second compound 0.316 µM, first compound 0.1 µM) 67.9% | viability, T/C (second compound 0.316 µM, first compound 0.316 µM) 54% | viability, T/C (second compound 0.316 µM, first compound 1 µM) 55.5% | viability, T/C (second compound 0.316 µM, first compound 3.16 µM) 31.7% | viability, T/C (second compound 0.316 µM, first compound 10 µM) 35.9% | viability, T/C (second compound 1 µM, first compound 0.0316 µM) 93.9% | viability, T/C (second compound 1 µM, first compound 0.1 µM) 65.7% | viability, T/C (second compound 1 µM, first compound 0.316 µM) 54.5% | viability, T/C (second compound 1 µM, first compound 1 µM) 46.3% | viability, T/C (second compound 1 µM, first compound 3.16 µM) 37.2% | viability, T/C (second compound 1 µM, first compound 10 µM) 36.1% | viability, T/C (second compound 3.16 µM, first compound 0.0316 µM) 73.4% | viability, T/C (second compound 3.16 µM, first compound 0.1 µM) 65.6% | viability, T/C (second compound 3.16 µM, first compound 0.316 µM) 48.1% | viability, T/C (second compound 3.16 µM, first compound 1 µM) 45.8% | viability, T/C (second compound 3.16 µM, first compound 3.16 µM) 31.6% | viability, T/C (second compound 3.16 µM, first compound 10 µM) 37.8% | viability, T/C (second compound 10 µM, first compound 0.0316 µM) 77.7% | viability, T/C (second compound 10 µM, first compound 0.1 µM) 64.9% | viability, T/C (second compound 10 µM, first compound 0.316 µM) 52.5% | viability, T/C (second compound 10 µM, first compound 1 µM) 48% | viability, T/C (second compound 10 µM, first compound 3.16 µM) 34.3% | viability, T/C (second compound 10 µM, first compound 10 µM) 30.4%
349 nM: IC50 (curve of first compound, second compound 3.16 µM)
